Data: patent US12083100B1, “Antiparasitic isoxazoline compounds, long-acting injectable formulations comprising them, methods and uses thereof” (BOEHRINGER INGELHEIM ANIMAL HEALTH USA INC., priority 2016, dated 2024)

Tested on: Rhipicephalus microplus ticks
Experiment: Efficacy of injectable formulation against Rhipicephalus (Boophilus) microplus ticks on cattle
Assay type: in vivo
Settings: for Average % Efficacy (Tick Count): vs untreated control; for efficacy and duration of activity against Rhipicephalus microplus compared with other isoxazoline compounds / speed of onset of efficacy against Rhipicephalus microplus compared with other isoxazoline compounds: injectable composition, compared with afoxolaner, (If) or (S)-If
Description: The efficacy of long-acting injectable compositions of the invention comprising the compounds of formula (Ie) and (S)-Ie, against Rhipicephalus microplus ticks on cattle was determined against an untreated control group. The efficacy of compositions comprising the compounds (Ie) and (S)-e were also compared with injectable compositions comprising afoxolaner (formula Ia, 4-[5-[3-chloro-5-(trifluoromethyl)phenyl]-4,5-dihydro-5-(trifluoromethyl)-3-isoxazolyl]-N-[2-oxo-2-[(2,2,2-trifluoroethyl)amino]ethyl]-1-naphthalanecarboxamide), and comparative compounds of formulae (If) and (S)-If shown below.
Each compound was formulated in an injectable composition at a concentration of 10% (w/v) in a carrier comprising 8% (w/v) ethanol and Q.S. with polyethylene glycol 400. The racemic compounds afoxolaner and (If) were dosed at 1.0 mg/kg body weight and the (S)-enantiomers ((S)-Ie and (S)-If) were dosed at 0.5 mg/kg body weight. Six healthy head of cattle were used in each study group. Cattle in Group 1 were untreated (control). Cattle in Groups 2, 3, 4, 5 and 6 were treated on Day 0 subcutaneously with injectable compositions comprising the compounds of formula Ie, (S)-If, (S)-Ie, afoxolaner (Ia) and (If), respectively. Several weeks before treatment, cattle were infested three times a week with approximately 2500 Rhipicephalus microplus larvae to establish ongoing infestations. Each animal was challenged by infestation with approximately 5000 R. microplus larvae on Days 7 and 21 and every 14 days thereafter. Ticks dropping from each animal in the previous 24 hours were collected daily and counted from Day 1 until the end of the study.

[1] = Day 5, 1.0 mg/kg subcutaneous on Day 0 (racemic compounds)
[2] = Day 10, 1.0 mg/kg subcutaneous on Day 0 (racemic compounds)
[3] = Day 20, 1.0 mg/kg subcutaneous on Day 0 (racemic compounds)
[4] = Day 30, 1.0 mg/kg subcutaneous on Day 0 (racemic compounds)
[5] = Day 40, 1.0 mg/kg subcutaneous on Day 0 (racemic compounds)
[6] = Day 49, 1.0 mg/kg subcutaneous on Day 0 (racemic compounds)
[7] = Day 55, 1.0 mg/kg subcutaneous on Day 0 (racemic compounds)
[8] = Day 60, 1.0 mg/kg subcutaneous on Day 0 (racemic compounds)
[9] = Day 65, 1.0 mg/kg subcutaneous on Day 0 (racemic compounds)
[10] = Day 70, 1.0 mg/kg subcutaneous on Day 0 (racemic compounds)
[11] = Day 75, 1.0 mg/kg subcutaneous on Day 0 (racemic compounds)
[12] = listed as formula (Ic) wherein X^1 is chloro, X^2 is fluoro and X^3 is CF3
[13] = listed as formula (Id) in which Y is Y-2, Q is —C(O)NHCH2C(O)NHCH2CF3, X^1 is fluoro and X

| SMILES | Average % Efficacy (Tick Count) [1] [%] | Average % Efficacy (Tick Count) [2] [%] | Average % Efficacy (Tick Count) [3] [%] | Average % Efficacy (Tick Count) [4] [%] | Average % Efficacy (Tick Count) [5] [%] | Average % Efficacy (Tick Count) [6] [%] | Average % Efficacy (Tick Count) [7] [%] | Average % Efficacy (Tick Count) [8] [%] | Average % Efficacy (Tick Count) [9] [%] | Average % Efficacy (Tick Count) [10] [%] | Average % Efficacy (Tick Count) [11] [%] | further results |
| --- | --- | --- | --- | --- | --- | --- | --- | --- | --- | --- | --- | --- |
| O=C(CNC(=O)c1ccc(C2=NOC(c3cc(Cl)c(F)c(C(F)(F)F)c3)(C(F)(F)F)C2)c2ccccc12)NCC(F)(F)F (racemic) [Ie] | 69 | 100 | 100 | 100 | 100 | 100 | 100 | 100 | 100 | 100 | 100 | Average % Efficacy (Tick Count) (Day 80, 1.0 mg/kg subcutaneous on Day 0 (racemic compounds)): 100%; Average % Efficacy (Tick Count) (Day 85, 1.0 mg/kg subcutaneous on Day 0 (racemic compounds)): 100%; Average % Efficacy (Tick Count) (Day 88, 1.0 mg/kg subcutaneous on Day 0 (racemic compounds)): 100%; Average % Efficacy (Tick Count) (Day 95, 1.0 mg/kg subcutaneous on Day 0 (racemic compounds)): 100%; Average % Efficacy (Tick Count) (Day 100, 1.0 mg/kg subcutaneous on Day 0 (racemic compounds)): 100%; Average % Efficacy (Tick Count) (Day 105, 1.0 mg/kg subcutaneous on Day 0 (racemic compounds)): 93%; Average % Efficacy (Tick Count) (Day 110, 1.0 mg/kg subcutaneous on Day 0 (racemic compounds)): 82%; efficacy and duration of activity against Rhipicephalus microplus compared with other isoxazoline compounds: surprising and unexpected efficacy; speed of onset of efficacy against Rhipicephalus microplus compared with other isoxazoline compounds (listed as Je): faster-acting; efficacy and duration of activity against Rhipicephalus microplus compared with other isoxazoline compounds [12]: surprisingly long-lasting and excellent efficacy; speed of onset of efficacy against Rhipicephalus microplus compared with other isoxazoline compounds [12]: quick onset; efficacy and duration of activity against Rhipicephalus microplus compared with other isoxazoline compounds [13]: surprisingly improved duration of activity; speed of onset of efficacy against Rhipicephalus microplus compared with other isoxazoline compounds [13]: surprisingly improved fast-acting efficacy |
| O=C(CNC(=O)c1ccc(C2=NOC(c3cc(Cl)cc(C(F)(F)F)c3)(C(F)(F)F)C2)c2ccccc12)NCC(F)(F)F (racemic) [afoxolaner, 4-[5-[3-chloro-5-(trifluoromethyl)phenyl]-4,5-dihydro-5-(trifluoromethyl)-3-isoxazolyl]-N-[2-oxo-2-[(2,2,2-trifluoroethyl)amino]ethyl]-1-naphthalanecarboxamide, reference compound] | 38 | 48 | 77 | 99 | 100 | 94 | 73 | 71 | 48 | 3 | 0 | – |
| O=C(CNC(=O)c1ccc(C2=NO[C@@](c3cc(Cl)cc(Cl)c3)(C(F)(F)F)C2)c2ccccc12)NCC(F)(F)F [(S)-If, reference compound] | – | – | – | – | – | – | – | – | – | – | – | Average % Efficacy (Tick Count) (Day 5, 0.5 mg/kg subcutaneous on Day 0 ((S)-enantiomers)): 39%; Average % Efficacy (Tick Count) (Day 10, 0.5 mg/kg subcutaneous on Day 0 ((S)-enantiomers)): 27%; Average % Efficacy (Tick Count) (Day 20, 0.5 mg/kg subcutaneous on Day 0 ((S)-enantiomers)): 33%; Average % Efficacy (Tick Count) (Day 30, 0.5 mg/kg subcutaneous on Day 0 ((S)-enantiomers)): 86%; Average % Efficacy (Tick Count) (Day 40, 0.5 mg/kg subcutaneous on Day 0 ((S)-enantiomers)): 100%; Average % Efficacy (Tick Count) (Day 49, 0.5 mg/kg subcutaneous on Day 0 ((S)-enantiomers)): 36%; Average % Efficacy (Tick Count) (Day 55, 0.5 mg/kg subcutaneous on Day 0 ((S)-enantiomers)): 0% |
| O=C(CNC(=O)c1ccc(C2=NOC(c3cc(Cl)cc(Cl)c3)(C(F)(F)F)C2)c2ccccc12)NCC(F)(F)F (stereo not shown) [If, reference compound] | 70 | 62 | 57 | 84 | 100 | 70 | 14 | – | – | – | – | – |
